Measured values from US11999677B2, “Benzylamino-oxoethyl benzamide analogs and methods of use” (The Board of Regents of the University of Oklahoma, priority 2018, dated 2024).
“Also recorded” adds a separate entry of the source. Like-named read-outs stand apart in the source and are kept apart here.

Columns and labels:
[1] = Solubility assay: turbidity in water, absorbance at 620 nm; format: physicochemical; conditions: pure H2O with 1% DMSO, 37° C., 1-2 h shaking, absorbance 620 nm; compared with compound 1
Description: Aqueous solubility was assessed as the degree of turbidity of compound in aqueous solutions, detected by absorbance at 620 nm. Higher turbidity indicated lower solubility. The experiments were performed in triplicate, with the results as the means±SD of triplicate wells.
Each compound was prepared at concentrations from 40 mM to 0.1 mM in DMSO in a serial-dilution manner. 2 μL of each of the above compound solutions was then dispensed directly to ˜198 μL of pure H2O in a 96-well white clear bottom microplate. Resulting solutions were shaken at 37° C. temperature 1-2 h on a rotary shaker at varying shaking rates to reach equilibrium solubility. The turbidity of the solution was measured using UV-visible spectrophotometry at 620 nm.
We investigated whether the compounds of the present disclosure have improved aqueous solubility. Using a thermodynamic turbidimetric assay we evaluated the aqueous solubility of several of the newly synthesized compounds.

pancreatic β-cells = conditions: cited from earlier work
INS-1 cells = experiment: Cell viability assay: INS-1 β-cells co-treated with compound and tunicamycin (Tm), CellTiter-Glo intracellular ATP; format: cell-based, rat; conditions: for Max Activity (%) / Emax: % rescue from Tm (0.15 μg/mL)-induced reduction of INS-1 cell viability, intracellular ATP, 72 h, Tm alone = 0%, DMSO control without Tm = 100%; for EC50: ten 2-fold serial titration points, triplicate, read-out: EC50 (μM), concentration that reaches half-maximal activity for INS-1 cell viability; for Emax: INS1, 72 h, read-out: Max Activity (%); for β-cell protective activity against Tm (in words): INS-1 cells in the presence of Tm
Description: INS-1 cells were cultured in RPMI 1640 medium (Corning) supplemented with 10% FBS (Atlanta Biologicals), 10 mM HEPES (Gibco-Life Technologies), 1 mM sodium pyruvate (Corning), 50 μM 2-mercaptoethanol (Sigma-Aldrich), and antibiotics (100 UI/mL penicillin and 100 µg/mL streptomycin; Corning) and maintained in a humidified 5% CO2 atmosphere at 37° C.
INS-1 cells were resuspended in RPMI 1640 medium containing 10% FBS and plated at 5×10^3 cells/(40 μL.well) into white clear bottom 384-well plates (Greiner) using an automated liquid handler (Biotek). After 24 h incubation at 37° C., library compounds were added to the wells at the indicated concentration using a pin-transfer robot (PerkinElmer). Tunicamycin (Tm) in RPMI 1640 medium containing 10% FBS was then added at a final concentration of 0.15 μg/mL. After 72 h, the medium was removed and 20 μL of CellTiter-Glo reagent which measures intracellular ATP levels as an indicator of viability (Promega) was added. Luminescence was measured 10 min later using an Envision plate reader (PerkinElmer).
We designed and synthesized novel benzylamino-oxoethyl benzamide analogs (5a-q, Table 1) and studied their effects on β-cell protection against ER stress. The analogs were tested for the viability of rat INS-1 β-cells in the presence of Tm, a potent ER stress inducer that inhibits N-linked glycosylation of proteins. The maximum activities and the concentrations that reach half-maximal activity (EC50) of the compounds were evaluated by the degree of increase in viability of INS-1 cells co-treated with the compounds in the presence of Tm compared with Tm treatment alone.

[2] = Rattus norvegicus, INS1, INS-1 cells with Tm 0.15 μg/mL

For `Cc1ccc(C)c(NC(=O)c2nnn(-c3cccc(Cl)c3C)c2C)c1` [Compound 1, 1-(3-chloro-2-methylphenyl)-N-(2,5-dimethylphenyl)-5-methyl-1H-1,2,3-triazole-4-carboxamide, reference compound], which “aqueous solubility (turbidimetric, in words)” value [1] is on record?
Its value is “sub-optimal aqueous solubility; also recorded: poor water solubility”.

What about the “protective activity for pancreatic β-cells against ER stress (previously shown)” value (pancreatic β-cells) of the same compound?
Its value is “protective activity”.

Which results are given for `Cc1ccc(C)c(CNC(=O)CNC(=O)c2cccc(Cl)c2C)c1` [Compound 5a, 3-Chloro-N-(2-((2,5-dimethylbenzyl)amino)-2-oxoethyl)-2-methylbenzamide]?
Max Activity (%) (INS-1 cells): 45%; EC50 (INS-1 cells; INS-1 cells with Tm 0.15 μg/mL): 18 ± 4 µM; Emax (INS-1 cells; Rattus norvegicus): 45%; EC50 (INS-1 cells; [2]): 18.6 µM

For `Cc1c(Cl)cccc1C(=O)NCC(=O)NCc1ccccn1` [Compound 5b, 3-Chloro-2-methyl-N-(2-oxo-2-((pyridin-2-ylmethyl)amino)ethyl)benzamide], which “Max Activity (%)” value (INS-1 cells) is on record?
The value was 16%.

What about the Emax (INS-1 cells; Rattus norvegicus) of the same compound?
The Emax was 16%.

And the EC50 (INS-1 cells; [2])?
Its EC50 is 38 ± 9 µM.

Which Emax (INS-1 cells; Rattus norvegicus) does the source give for `Cc1c(Cl)cccc1C(=O)NCC(=O)Nc1ccc2nc[nH]c2c1` [Compound 5c, N-(2-((1H-benzo[d]imidazol-6-yl)amino)-2-oxoethyl)-3-chloro-2-methylbenzamide] here?
Its Emax is 0%.

Which “Max Activity (%)” value (INS-1 cells) does the source give for `COc1ccc(CNC(=O)CNC(=O)c2cccc(Cl)c2C)cc1` [Compound 5d, 3-Chloro-N-(2-((4-methoxybenzyl)amino)-2-oxoethyl)-2-methylbenzamide] here?
The value was 55%.

What about the Emax (INS-1 cells; Rattus norvegicus) of the same compound?
The Emax was 41 to 55%.

What about the EC50 (INS-1 cells; [2]) of the same compound?
Its EC50 is 32 ± 7 µM.

What does the source list for `Cc1c(Cl)cccc1C(=O)NCC(=O)NCc1ccc(S(N)(=O)=O)cc1` [Compound 5e, 3-Chloro-2-methyl-N-(2-oxo-2-((4-sulfamoylbenzyl)amino)ethyl)benzamide]?
Max Activity (%) (INS-1 cells): 52%; Emax (INS-1 cells; Rattus norvegicus): 41 to 55%; EC50 (INS-1 cells; [2]): 40 ± 12 µM

For `Cc1c(Cl)cccc1C(=O)NCC(=O)NCCc1ccc(O)cc1` [Compound 5f, 3-Chloro-N-(2-((4-hydroxyphenethyl)amino)-2-oxoethyl)-2-methylbenzamide], which “Max Activity (%)” value (INS-1 cells) is on record?
Its value is 41%.

And the Emax (INS-1 cells; Rattus norvegicus)?
Its Emax is 41 to 55%.

What about the EC50 (INS-1 cells; [2]) of the same compound?
The EC50 was 34 ± 8 µM.

For `Cc1c(Cl)cccc1C(=O)NCC(=O)NCc1ccc(C(F)(F)F)cc1` [Compound 5g, 3-Chloro-2-methyl-N-(2-oxo-2-((4-(trifluoromethyl)benzyl)amino)ethyl)benzamide], which “Max Activity (%)” value (INS-1 cells) is on record?
Its value is 88%.

What about the Emax (INS-1 cells; Rattus norvegicus) of the same compound?
The Emax was 88%.

What about the EC50 (INS-1 cells; [2]) of the same compound?
Its EC50 is 13 ± 1 µM.

And the “aqueous solubility (turbidimetric, in words)” value [1]?
The value was “improved water solubility”.

Which results are given for `COc1cc(CNC(=O)CNC(=O)c2cccc(Cl)c2C)ccc1O` [Compound 5h, 3-Chloro-N-(2-((4-hydroxy-3-methoxybenzyl)amino)-2-oxoethyl)-2-methylbenzamide]?
Max Activity (%) (INS-1 cells): 100%; Emax (INS-1 cells; Rattus norvegicus): 100%; EC50 (INS-1 cells; [2]): 10 ± 2 µM; aqueous solubility (turbidimetric, in words) [1]: improved water solubility

Which “Max Activity (%)” value (INS-1 cells) does the source give for `Cc1c(Cl)cccc1C(=O)NCC(=O)NCc1cccc(C(F)(F)F)c1` [Compound 5i, 3-Chloro-2-methyl-N-(2-oxo-2-((3-(trifluoromethyl)benzyl)amino)ethyl)benzamide] here?
The value was 46%.

And the Emax (INS-1 cells; Rattus norvegicus)?
Its Emax is 46%.

And the EC50 (INS-1 cells; [2])?
Its EC50 is 32 ± 7 µM.

For `O=C(CNC(=O)c1ccccc1)NCc1ccc(C(F)(F)F)cc1` [Compound 5j, N-(2-Oxo-2-((4-(trifluoromethyl)benzyl)amino)ethyl)benzamide], which “Max Activity (%)” value (INS-1 cells) is on record?
The value was 35%.

What about the EC50 (INS-1 cells; INS-1 cells with Tm 0.15 μg/mL) of the same compound?
The EC50 was 43 ± 11 µM.

What about the Emax (INS-1 cells; Rattus norvegicus) of the same compound?
The Emax was 35%.

For `CCc1ccc(C(=O)NCC(=O)NCc2ccc(C(F)(F)F)cc2)cc1` [Compound 5k, 4-Ethyl-N-(2-oxo-2-((4-(trifluoromethyl)benzyl)amino)ethyl)benzamide], which “Max Activity (%)” value (INS-1 cells) is on record?
Its value is 42%.

And the EC50 (INS-1 cells; INS-1 cells with Tm 0.15 μg/mL)?
The EC50 was 45 ± 8 µM.

And the Emax (INS-1 cells; Rattus norvegicus)?
The Emax was 42%.

For `O=C(CNC(=O)c1ccc(F)cc1)NCc1ccc(C(F)(F)F)cc1` [Compound 5l, 4-fluoro-N-(2-oxo-2-((4-(trifluoromethyl)benzyl)amino)ethyl)benzamide], which “Max Activity (%)” value (INS-1 cells) is on record?
Its value is 12%.

And the Emax (INS-1 cells; Rattus norvegicus)?
The Emax was 12%.

And the EC50 (INS-1 cells; [2])?
Its EC50 is 41 ± 6 µM.

Which results are given for `O=C(CNC(=O)c1cccc(O)c1)NCc1ccc(C(F)(F)F)cc1` [Compound 5m, 3-Hydroxy-N-(2-oxo-2-((4-(trifluoromethyl)benzyl)amino)ethyl)benzamide]?
Max Activity (%) (INS-1 cells): 100%; Emax (INS-1 cells; Rattus norvegicus): 100%; EC50 (INS-1 cells; [2]): 0.1 µM; aqueous solubility (turbidimetric, in words) [1]: improved water solubility

With `COc1cc(CNC(=O)CNC(=O)c2cccc(O)c2)ccc1O` [Compound 5n, 3-Hydroxy-N-(2-((4-hydroxy-3-methoxybenzyl)amino)-2-oxoethyl)benzamide] as the compound, how does the “β-cell protective activity against Tm (in words)” value (“β-cell protective activity” for short) (INS-1 cells) read?
The value was “significantly compromised activity”.

What about the Emax (INS-1 cells; Rattus norvegicus) of the same compound?
The Emax was 30%.

What about the EC50 (INS-1 cells; [2]) of the same compound?
The EC50 was 65 ± 8 µM.

Which “β-cell protective activity” value (INS-1 cells) does the source give for `COc1cc(C(=O)NCC(=O)NCc2ccc(C(F)(F)F)cc2)ccc1O` [Compound 5o, 4-hydroxy-3-methoxy-N-(2-oxo-2-((4-(trifluoromethyl)benzyl)amino)ethyl)benzamide] here?
The value was “significantly compromised activity”.

And the Emax (INS-1 cells; Rattus norvegicus)?
Its Emax is 43%.

And the EC50 (INS-1 cells; [2])?
The EC50 was 29 ± 6 µM.

What does the source list for `Cc1c(Cl)cccc1C(=O)NC(C)C(=O)NCc1ccc(C(F)(F)F)cc1` (stereo not drawn) [Compound 5p, 3-Chloro-2-methyl-N-(1-oxo-1-((4-(trifluoromethyl)benzyl)amino)propan-2-yl)benzamide]?
β-cell protective activity against Tm (in words) (INS-1 cells): significantly less or not active; Emax (INS-1 cells; Rattus norvegicus): 34%; EC50 (INS-1 cells; [2]): 63 ± 4 µM

For `Cc1c(Cl)cccc1C(=O)NC(Cc1ccc(O)cc1)C(=O)NCc1ccc(C(F)(F)F)cc1` (stereo not drawn) [Compound 5q, 3-Chloro-N-(3-(4-hydroxyphenyl)-1-oxo-1-((4-(trifluoromethyl)benzyl)amino)propan-2-yl)-2-methylbenzamide], which “Max Activity (%)” value (INS-1 cells) is on record?
The value was “Cytotoxic”.

What about the “β-cell protective activity” value (INS-1 cells) of the same compound?
The value was “significantly less or not active”.
